Measurements reported in US5618844A, “Hydroxamic acid and carboxylic acid derivatives, process for their preparation and use thereof” (Sanofi S.A., priority 1995, dated 1997).

Tests used:
Type in all cases: biochemical
[1] = target: T1, Human Fibroblast Collagenase (Homo sapiens, UniProt P03956); experiment: inhibition of recombinant MMP, peptide substrate assay with fluorescamine detection (HFC); settings: calculated from measured percent inhibition using Km, assuming competitive inhibition; Met1-Pro250 proenzyme, activated with p-aminophenylmercury
T1 construct: All active MMPs are purified by gel filtration; made in house
T1 sequence (P03956 100-269 limits assumed): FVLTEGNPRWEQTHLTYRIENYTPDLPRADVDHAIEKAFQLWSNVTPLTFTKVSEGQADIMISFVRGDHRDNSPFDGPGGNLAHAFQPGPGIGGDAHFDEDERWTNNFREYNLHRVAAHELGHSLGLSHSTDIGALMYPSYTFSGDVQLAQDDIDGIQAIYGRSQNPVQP

[2] = target: T2, Human Neutrophil Collagenase (Homo sapiens, UniProt P22894); experiment: inhibition of recombinant MMP, peptide substrate assay with fluorescamine detection (HNC); settings: calculated from measured percent inhibition using Km, assuming competitive inhibition; Met100-Gly262
T2 construct: expressed as mature enzymes with C-terminal truncations, Phe83-Thr260 and Met100-Gly262, respectively; made in house
T2 sequence (P22894 100-262): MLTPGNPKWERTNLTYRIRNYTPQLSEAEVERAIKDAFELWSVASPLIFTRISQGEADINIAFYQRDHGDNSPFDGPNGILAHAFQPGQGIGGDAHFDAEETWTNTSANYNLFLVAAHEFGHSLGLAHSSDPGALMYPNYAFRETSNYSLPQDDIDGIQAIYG

[3] = target: T3, Human Fibroblast Stromelysin (Homo sapiens, UniProt P08254); experiment: inhibition of recombinant MMP, peptide substrate assay with fluorescamine detection (HFS)
T3 construct: expressed as mature enzymes with C-terminal truncations, Phe83-Thr260 and Met100-Gly262, respectively; made in house
T3 sequence (P08254 100-277): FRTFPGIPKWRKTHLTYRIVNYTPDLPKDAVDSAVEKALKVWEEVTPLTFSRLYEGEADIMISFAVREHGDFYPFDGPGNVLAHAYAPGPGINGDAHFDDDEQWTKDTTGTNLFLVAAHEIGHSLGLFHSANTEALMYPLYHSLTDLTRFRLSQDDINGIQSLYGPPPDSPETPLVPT

Ki [1] | Ki [2] | Ki [3] | Compound
1450 nM | – | – | CNC(=O)[C@H](Cc1ccccc1)NC(=O)[C@H](CCCCOCc1ccccc1)CC(=O)NO [Example 2, N-[(2R)-2-[2'-(Hydroxyamino)-2'(oxo)ethyl]-6-(phenylmethoxy)hexanoyl]-L-phenylalanine N-methylamide]
30 nM | 7 nM | – | CNC(=O)[C@H](Cc1ccccc1)NC(=O)[C@H](CCCCO)CC(=O)NO [Example 3, N-[(2R)-2-[2'-(hydroxyamino)-2'-(oxo)ethyl]-6-(hydroxy)hexanoyl]-L-phenylalanine N-methylamide]
– | 270 nM | – | CNC(=O)[C@H](Cc1ccccc1)NC(=O)[C@H](CCCC(=O)O)CC(=O)NO [Example 4, N-[(2R)-2-[2'-(Hydroxyamino)-2'-(oxo)ethyl]-5-(carboxy)pentanoyl]-L-phenylalanine N-methylamide]
5100 nM | < 2 nM | – | CCCNC(=O)CCC[C@H](CC(=O)NO)C(=O)N[C@@H](Cc1ccccc1)C(=O)NC [Example 5, N-[(2R)-2-[2'-(Hydroxyamino)-2'-(oxo)ethyl]-6-(propylamino)-6-(oxo)hexanoyl]-L-phenylalanine N-methylamide]
150 nM | 20 nM | 1500 nM | CNC(=O)[C@H](Cc1ccccc1)NC(=O)[C@H](CCCC(C)O)CC(=O)NO (stereo partly drawn) [Example 6, N-[(2R)-2-[2'-(Hydroxyamino)-2'-(oxo)ethyl]-(6RS)-6-(hydroxy)heptanoyl]-L-phenylalanine N-methylamide]
27 nM | 17 nM | 5000 nM | CNC(=O)[C@@H](NC(=O)[C@H](CCCCO)CC(=O)NO)C(C)(C)C [Example 9, (2S)-N-2-[(2'R)-2'-[2"-(Hydroxyamino)-2"-(oxo)ethyl]-6'-(hydroxy)hexanoyl]amino-3,3-dimethylbutanoic acid N-methylamide]
2270 nM | – | – | CNC(=O)[C@H](Cc1ccccc1)NC(=O)[C@H](CCCOCc1ccccc1)CC(=O)NO [Example 10, N-[(2R)-2-[2'-(Hydroxyamino)-2'-(oxo)ethyl]-5-(phenylmethoxy)pentanoyl]-L-phenylalanine N-methylamide]
920 nM | 4 nM | – | CNC(=O)[C@H](Cc1ccccc1)NC(=O)[C@H](CCCCCOCc1ccccc1)CC(=O)NO [Example 11, N-[(2R)-2-[2'-(Hydroxyamino)-2'-(oxo)ethyl]-7-(phenylmethoxy)heptanoyl]-L-phenylalanine N-methylamide]
1600 nM | 120 nM | – | CCCC(=O)NCCCC[C@H](CC(=O)NO)C(=O)N[C@@H](Cc1ccccc1)C(=O)NC [Example 12]
8 nM | – | – | CNC(=O)[C@H](Cc1ccccc1)NC(=O)[C@H](CCCCOc1ccccc1)CC(=O)NO [Example 13, N-[(2R)-2-[2'-(Hydroxyamino)-2'-(oxo)ethyl]-6-(phenoxy)-hexanoyl]-L-phenylalanine N-methylamide]
35 nM | 16 nM | 26 nM | CNC(=O)[C@@H](NC(=O)[C@H](CCCC(=O)NCCc1ccccc1)CC(=O)NO)C(C)(C)C [Example 15, (2S)-N-2'-[(2'R)-2'-[2"-(Hydroxyamino)-2"-(oxo)ethyl]-6'-(2-phenethylamino)-6' (oxo)hexanoyl]amino-3,3-dimethylbutanoic acid N-methylamide]
14 nM | – | – | CNC(=O)[C@@H](NC(=O)[C@H](CCCCOc1ccc(C)cc1)CC(=O)NO)C(C)(C)C [Example 16, (2S)-N-2'-[(2'R)-2'-[2"-(Hydroxyamino)-2"-(oxo)ethyl]-6'-(4-methylphenoxy)hexanoyl]amino-3,3-dimethylbutanoic acid N-methylamide]
21 nM | – | – | CNC(=O)[C@@H](NC(=O)[C@H](CCCCOc1ccc(Cl)cc1)CC(=O)NO)C(C)(C)C [Example 17, (2S)-N-2'-[(2'R)-2'-[2"-(Hydroxyamino)-2"-(oxo)ethyl]-6'-(4-chlorophenoxy)hexanoyl]amino-3,3-dimethylbutanoic acid N-methylamide]
1800 nM | – | 220 nM | CNC(=O)[C@@H](NC(=O)[C@H](CCCCOc1cccc(C)c1)CC(=O)O)C(C)(C)C [Example 19, (2S)-N-2'-[(2'R)-2'-(carboxymethyl)-6'-(3-methylphenoxy)hexanoyl]amino-3,3-dimethylbutanoic acid N-methylamide]

Compound | Ki [1] | Ki [2] | Ki [3]
CNC(=O)[C@@H](NC(=O)[C@H](CCCCOCc1ccccc1)CC(=O)NO)C(C)(C)C [Example 8, (2S)-N-2-[(2'R)-2'-[2"-(Hydroxyamino)-2"-(oxo)ethyl]-6'-(phenylmethoxy)hexanoyl]amino-3,3-dimethylbutanoic acid N-methylamide] | 1400 nM | 5 nM | 57 nM
